From patent publication US20050070510A1, “Substituted tetracycline compounds as synergistic antifungal agents” (Paratek Pharmaceuticals, Inc., priority 2001, published 2005)

system: COS-1 cells; test: In vitro mammalian cytotoxicity assay (Resazurin)

Compound | In Vitro Cytotoxicity
CN(C)[C@@H]1C(O)=C(C(N)=O)C(=O)[C@@]2(C#N)C(O)=C3C(=O)c4c(O)c(C(C)(C)C)cc(CN)c4C[C@@]3(N)C[C@@]12N [RC] | * (toxicities greater than >25 μg/ml are represented by *)
CN(C)c1ccc(-c2cc([N+](=O)O)c(O)c3c2C[C@@]2(N)C[C@@]4(N)C(N(C)C)C(O)=C(C(N)=O)C(=O)[C@@]4(C#N)C(O)=C2C3=O)cc1 (stereo partly drawn) [RE] | ** (toxicities less than 25 μg/mL are represented by **)
CN(C)[C@@H]1C(O)=C(C(N)=O)C(=O)[C@@]2(C#N)C(O)=C3C(=O)c4c(ccc(CC(=O)c5ccno5)c4O)C[C@@]3(N)C[C@@]12N [RF] | * (toxicities greater than >25 μg/ml are represented by *)
COC(=O)c1cc(NC(=O)c2ccno2)cc(-c2ccc(O)c3c2C[C@@]2(N)C[C@@]4(N)C(N(C)C)C(O)=C(C(N)=O)C(=O)[C@@]4(C#N)C(O)=C2C3=O)c1 (stereo partly drawn) [RG] | * (toxicities greater than >25 μg/ml are represented by *)
CN(C)C1C(O)=C(C(N)=O)C(=O)[C@@]2(C#N)C(O)=C3C(=O)c4c(O)ccc(-c5ccc(NC(=O)c6ccno6)cc5)c4C[C@@]3(N)C[C@@]12N (stereo partly drawn) [RH] | * (toxicities greater than >25 μg/ml are represented by *)
Cc1noc(C)c1S(=O)(=O)Nc1ccc2c(c1O)C(=O)C1=C(O)[C@]3(C#N)C(=O)C(C(N)=O)=C(O)[C@@H](N(C)C)[C@]3(N)C[C@]1(N)C2 [RI] | ** (toxicities less than 25 μg/mL are represented by **)
CCc1cc(C(C)=O)c(O)c2c1C[C@@]1(N)C[C@@]3(N)[C@H](N(C)C)C(O)=C(C(N)=O)C(=O)[C@@]3(C#N)C(O)=C1C2=O [RJ] | ** (toxicities less than 25 μg/mL are represented by **)
CCc1cc(CNCC(C)C)c(O)c2c1C[C@@]1(N)C[C@@]3(N)[C@H](N(C)C)C(O)=C(C(N)=O)C(=O)[C@@]3(C#N)C(O)=C1C2=O [RK] | * (toxicities greater than >25 μg/ml are represented by *)
CN(C)[C@@H]1C(O)=C(C(N)=O)C(=O)[C@@]2(C#N)C(O)=C3C(=O)c4c(O)c(CNC(=O)C5CC5)cc(-c5ccc(C(C)(C)C)cc5)c4C[C@@]3(N)C[C@@]12N [RM] | ** (toxicities less than 25 μg/mL are represented by **)
CC(C)CC(Cc1ccc(O)c2c1C[C@@]1(N)C[C@@]3(N)[C@H](N(C)C)C(O)=C(C(N)=O)C(=O)[C@@]3(C#N)C(O)=C1C2=O)CC(C)C [RN] | ** (toxicities less than 25 μg/mL are represented by **)
CN(C)[C@@H]1C(O)=C(C(N)=O)C(=O)[C@@]2(C#N)C(O)=C3C(=O)c4c(O)c(CN)cc(-c5ccccc5)c4C[C@@]3(N)C[C@@]12N [RO] | * (toxicities greater than >25 μg/ml are represented by *)
CN(C)[C@@H]1C(O)=C(C(N)=O)C(=O)[C@@]2(C#N)C(O)=C3C(=O)c4c(ccc(CNCC(C)(C)C)c4O)[C@H](N)[C@@]3(N)[C@H](O)[C@@]12N [RP] | * (toxicities greater than >25 μg/ml are represented by *)
CC(C)CNCc1ccc2c(c1O)C(=O)C1=C(O)[C@]3(C#N)C(=O)C(C(N)=O)=C(O)[C@@H](N(C)C)[C@]3(N)[C@@H](O)[C@]1(N)[C@H]2N [RQ] | * (toxicities greater than >25 μg/ml are represented by *)
CN(C)[C@@H]1C(O)=C(C(N)=O)C(=O)[C@@]2(C#N)C(O)=C3C(=O)c4c(ccc(NC5CCC(Cc6ccccc6)CC5)c4O)[C@H](N)[C@@]3(N)[C@H](O)[C@@]12N (stereo partly drawn) [RS] | * (toxicities greater than >25 μg/ml are represented by *)
COc1ccc(-c2ccc(O)c3c2C[C@@]2(N)C[C@@]4(N)[C@H](N(C)C)C(O)=C(C(N)=O)C(=O)[C@@]4(C#N)C(O)=C2C3=O)c(OC)c1OC [RT] | ** (toxicities less than 25 μg/mL are represented by **)
COC(=O)c1ccc(O)c2c1C[C@@]1(N)C[C@@]3(N)[C@H](N(C)C)C(O)=C(C(N)=O)C(=O)[C@@]3(C#N)C(O)=C1C2=O [RV] | ** (toxicities less than 25 μg/mL are represented by **)
CN(C)[C@@H]1C(O)=C(C(N)=O)C(=O)[C@@]2(C#N)C(O)=C3C(=O)c4c(ccc(CNC(=O)c5ccccc5)c4O)C[C@@]3(N)C[C@@]12N [RW] | * (toxicities greater than >25 μg/ml are represented by *)
CCCCN(c1ccc2c(c1O)C(=O)C1=C(O)[C@]3(C#N)C(=O)C(C(N)=O)=C(O)[C@@H](N(C)C)[C@]3(N)[C@@H](O)[C@]1(N)[C@H]2N)C1CCN(C)CC1 [RX] | * (toxicities greater than >25 μg/ml are represented by *)
CCCCN(c1ccc2c(c1O)C(=O)C1=C(O)[C@]3(C#N)C(=O)C(C(N)=O)=C(O)[C@@H](N(C)C)[C@]3(N)C[C@]1(N)C2)C1CCN(C)CC1 [RY] | * (toxicities greater than >25 μg/ml are represented by *)
CN(C)[C@@H]1C(O)=C(C(N)=O)C(=O)[C@@]2(C#N)C(O)=C3C(=O)c4c(O)ccc(NS(C)(=O)=O)c4C[C@@]3(N)C[C@@]12N [RZ] | * (toxicities greater than >25 μg/ml are represented by *)
CN(C)[C@@H]1C(O)=C(C(N)=O)C(=O)[C@@]2(C#N)C(O)=C3C(=O)c4c(ccc(N5CCCCC5)c4O)[C@H](N)[C@@]3(N)[C@H](O)[C@@]12N [SA] | * (toxicities greater than >25 μg/ml are represented by *)

Compound | In Vitro Cytotoxicity
CC(=O)c1cc(F)c(O)c2c1C[C@@]1(N)C[C@@]3(N)[C@H](N(C)C)C(O)=C(C(N)=O)C(=O)[C@@]3(C#N)C(O)=C1C2=O [SB] | * (toxicities greater than >25 μg/ml are represented by *)
CNc1ccc(NC(=O)Nc2cc(N(C)C)c3c(c2O)C(=O)C2=C(O)[C@]4(C#N)C(=O)C(C(N)=O)=C(O)[C@@H](N(C)C)[C@]4(N)C[C@]2(N)C3)cc1 [SE] | * (toxicities greater than >25 μg/ml are represented by *)
COC(CN(Cc1ccc(O)c2c1C[C@@]1(N)C[C@@]3(N)[C@H](N(C)C)C(O)=C(C(N)=O)C(=O)[C@@]3(C#N)C(O)=C1C2=O)CC(OC)OC)OC [SG] | * (toxicities greater than >25 μg/ml are represented by *)
CN(C)[C@@H]1C(O)=C(C(N)=O)C(=O)[C@@]2(C#N)C(O)=C3C(=O)c4c(O)ccc(CNCc5cccn5C)c4C[C@@]3(N)C[C@@]12N [SH] | * (toxicities greater than >25 μg/ml are represented by *)
CN(C)[C@@H]1C(O)=C(C(N)=O)C(=O)[C@@]2(C#N)C(O)=C3C(=O)c4c(O)ccc(CNCc5ccc[nH]5)c4C[C@@]3(N)C[C@@]12N [SI] | * (toxicities greater than >25 μg/ml are represented by *)
CN(C)[C@@H]1C(O)=C(C(N)=O)C(=O)[C@@]2(C#N)C(O)=C3C(=O)c4c(ccc(NC5CCN(Cc6ccccc6)CC5)c4O)C[C@@]3(N)C[C@@]12N [SJ] | * (toxicities greater than >25 μg/ml are represented by *)
CN(C)c1cc(CNCc2cccn2C)c(O)c2c1C[C@@]1(N)C[C@@]3(N)[C@H](N(C)C)C(O)=C(C(N)=O)C(=O)[C@@]3(C#N)C(O)=C1C2=O [SK] | * (toxicities greater than >25 μg/ml are represented by *)
C#CCOC(=O)Nc1cc(N(C)C)c2c(c1O)C(=O)C1=C(O)[C@]3(C#N)C(=O)C(C(N)=O)=C(O)[C@@H](N(C)C)[C@]3(N)C[C@]1(N)C2 [SL] | ** (toxicities less than 25 μg/mL are represented by **)
CN(C)c1cc(-c2ccoc2)c(O)c2c1C[C@@]1(N)C[C@@]3(N)[C@H](N(C)C)C(O)=C(C(N)=O)C(=O)[C@@]3(C#N)C(O)=C1C2=O [SN] | ** (toxicities less than 25 μg/mL are represented by **)
CN(C)[C@@H]1C(O)=C(C(N)=O)C(=O)[C@@]2(C#N)C(O)=C3C(=O)c4c(ccc(N5CCCCC5)c4O)C[C@@]3(N)C[C@@]12N [SO] | ** (toxicities less than 25 μg/mL are represented by **)
Cc1cc(CNCc2cc(N(C)C)c3c(c2O)C(=O)C2=C(O)[C@]4(C#N)C(=O)C(C(N)=O)=C(O)[C@@H](N(C)C)[C@]4(N)C[C@]2(N)C3)[nH]c1C [SP] | * (toxicities greater than >25 μg/ml are represented by *)
CN(C)c1cc(-c2ccc(CN3CCCC3)o2)c(O)c2c1C[C@@]1(N)C[C@@]3(N)[C@H](N(C)C)C(O)=C(C(N)=O)C(=O)[C@@]3(C#N)C(O)=C1C2=O [SQ] | * (toxicities greater than >25 μg/ml are represented by *)
CN(C)[C@@H]1C(O)=C(C(N)=O)C(=O)[C@@]2(C#N)C(O)=C3C(=O)c4c(O)ccc(-c5ccc(CNC6CCCCC6)o5)c4C[C@@]3(N)C[C@@]12N [SR] | ** (toxicities less than 25 μg/mL are represented by **)
CN(C)[C@@H]1C(O)=C(C(N)=O)C(=O)[C@@]2(C#N)C(O)=C3C(=O)c4c(O)ccc(-c5ccc(CNCc6ccccc6)o5)c4C[C@@]3(N)C[C@@]12N [SS] | ** (toxicities less than 25 μg/mL are represented by **)
CN(C)CCN(C)Cc1ccc(-c2cc(N(C)C)c3c(c2O)C(=O)C2=C(O)[C@]4(C#N)C(=O)C(C(N)=O)=C(O)[C@@H](N(C)C)[C@]4(N)C[C@]2(N)C3)s1 [ST] | * (toxicities greater than >25 μg/ml are represented by *)
CN(C)c1cc(CNC(=O)C(Cc2ccccc2)N(C)C)c(O)c2c1C[C@@]1(N)C[C@@]3(N)[C@H](N(C)C)C(O)=C(C(N)=O)C(=O)[C@@]3(C#N)C(O)=C1C2=O (stereo partly drawn) [SU] | ** (toxicities less than 25 μg/mL are represented by **)
CC(N)CNCc1cc(N(C)C)c2c(c1O)C(=O)C1=C(O)[C@]3(C#N)C(=O)C(C(N)=O)=C(O)[C@@H](N(C)C)[C@]3(N)C[C@]1(N)C2 (stereo partly drawn) [SV] | * (toxicities greater than >25 μg/ml are represented by *)
CN(C)c1cc(CNC(=O)c2ccco2)c(O)c2c1C[C@@]1(N)C[C@@]3(N)[C@H](N(C)C)C(O)=C(C(N)=O)C(=O)[C@@]3(C#N)C(O)=C1C2=O [SW] | * (toxicities greater than >25 μg/ml are represented by *)
CN(C)[C@@H]1C(O)=C(C(N)=O)C(=O)[C@@]2(C#N)C(O)=C3C(=O)c4c(O)ccc(-c5ccc(CNC6CC6)o5)c4C[C@@]3(N)C[C@@]12N [SX] | ** (toxicities less than 25 μg/mL are represented by **)
CN(C)[C@@H]1C(O)=C(C(N)=O)C(=O)[C@@]2(C#N)C(O)=C3C(=O)c4c(O)ccc(-c5ccc(CNC(C)(C)C)o5)c4C[C@@]3(N)C[C@@]12N [SY] | * (toxicities greater than >25 μg/ml are represented by *)
CCC(C)CNCc1cc(N(C)C)c2c(c1O)C(=O)C1=C(O)[C@]3(C#N)C(=O)C(C(N)=O)=C(O)[C@@H](N(C)C)[C@]3(N)C[C@]1(N)C2 (stereo partly drawn) [SZ] | * (toxicities greater than >25 μg/ml are represented by *)
